From patent US20140107109A1, “AMINO-DIHYDROTHIAZINE AND AMINO-DIOXIDO DIHYDROTHIAZINE COMPOUNDS AS BETA-SECRETASE ANTAGONISTS AND METHODS OF USE” (Amgen Inc., priority 2012, published 2014) come the findings set out here.

Assay [1] has as its target Beta Secretase enzyme (BACE1) (Homo sapiens, UniProt P56817). Kind of assay: In vitro enzymatic BACE FRET assay. Particulars: average IC50, enzyme assay; read-out: BACE1 FRET assay IC50. Type of assay: biochemical. An outline of the steps: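 Readout: dequenched fluorescence (ex 488 nm/[…]) after neutralizing with Tris buffer. Reactions, begun by adding 50 nM quenched peptide substrate spanning the BACE cleavage site, were incubated one hour at pH 4.2 in 0.05 M acetate with 100 uM genapol and 10% final DMSO.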

The target of the next assay is T1, Cathepsin D (Cat D) (Homo sapiens, UniProt P07339).
T1 construct: Recombinant Cat D was expressed in CHO cells; made in house; host or cells: CHO cells
Kind of assay: In vitro enzymatic Cathepsin D (Cat D) FRET assay. Particulars: read-out: CatD IC50. The format is biochemical. An outline of the steps:
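FRET read-out: a fluorophore/quencher-labelled peptide substrate is cleaved by 9 nM Cat D (recombinant, CHO-expressed) following a one-hour preincubation with inhibitor dilutions in DMSO. Tris buffer added to neutralize pH ends the reaction before fluorescence measurement.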

The subject of assay [2] is Aβ40 in conditioned medium of cells stably expressing Amyloid Precursor Protein (APP). Kind of assay: In vitro BACE cell-based assay (HEK cell assay), Aβ40 sandwich ELISA. Particulars: Homo sapiens, HEK293; average IC50, HEK cell assay. The gist of the method: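 Aβ40 in conditioned medium was quantified by time-resolved fluorescence sandwich ELISA (pAb40 capture 3 h at 4 °C, biotin-6E10 detection 2 h at 4 °C) after 24 h compound exposure of APP-expressing cells. Doses spanned 10 points from 100 μM or 10 μM top, 0.1% DMSO; IC50 was derived from percent of control.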
In general terms: In an ELISA, binding on a coated surface is turned into a signal by an enzyme label.

A value given as a limit tells only on which side of the number the result lay.

T1 sequence (P07339 65-412, species assumed): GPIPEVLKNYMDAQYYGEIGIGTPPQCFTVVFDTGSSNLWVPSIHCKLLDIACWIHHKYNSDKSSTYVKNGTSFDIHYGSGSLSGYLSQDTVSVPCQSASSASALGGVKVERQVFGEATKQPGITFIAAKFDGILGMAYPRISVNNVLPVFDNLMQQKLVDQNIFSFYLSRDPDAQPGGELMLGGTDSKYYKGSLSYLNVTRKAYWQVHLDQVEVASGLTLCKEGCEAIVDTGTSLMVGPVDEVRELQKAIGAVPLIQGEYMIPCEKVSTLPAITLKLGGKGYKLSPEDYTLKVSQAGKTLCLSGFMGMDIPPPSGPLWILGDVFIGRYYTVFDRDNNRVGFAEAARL
Sequence of Beta Secretase enzyme (BACE1) (P56817 46-501): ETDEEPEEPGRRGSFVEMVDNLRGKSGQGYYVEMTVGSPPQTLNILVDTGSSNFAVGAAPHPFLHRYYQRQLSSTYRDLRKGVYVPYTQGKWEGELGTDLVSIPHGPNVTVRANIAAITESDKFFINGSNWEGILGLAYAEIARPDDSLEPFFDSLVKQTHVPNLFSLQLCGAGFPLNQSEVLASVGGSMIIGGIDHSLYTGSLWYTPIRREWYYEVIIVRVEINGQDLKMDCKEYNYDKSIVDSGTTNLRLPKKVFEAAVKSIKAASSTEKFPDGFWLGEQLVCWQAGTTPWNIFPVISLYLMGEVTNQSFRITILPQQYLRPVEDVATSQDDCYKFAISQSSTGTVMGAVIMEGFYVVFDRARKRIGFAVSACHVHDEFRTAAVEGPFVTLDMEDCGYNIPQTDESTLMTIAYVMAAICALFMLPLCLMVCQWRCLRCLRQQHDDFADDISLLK

As to `COc1cc(Cl)ccc1C(=O)Nc1ccc(F)c([C@]2(C)CS(=O)(=O)C(C)(C)C(N)=N2)c1` [Example 345, N-(3-((3R)-5-amino-3,6,6-trimethyl-1,1-dioxido-3,6-dihydro-2H-1,4-thiazin-3-yl)-4-fluorophenyl)-4-chloro-2-methoxybenzamide], the figures for the IC50 (in assay [1]; on Cathepsin D (Cat D); in assay [2]) were 31.3 nM, 75600 nM and 71.3 nM, respectively.

`CC1(C)C(N)=N[C@](C)(c2cc(NC(=O)c3cnc(OCC(F)(F)F)cn3)ccc2F)CS1(=O)=O` [Example 346, N-(3-((3R)-5-amino-3,6,6-trimethyl-1,1-dioxido-3,6-dihydro-2H-1,4-thiazin-3-yl)-4-fluorophenyl)-5-(2,2,2-trifluoroethoxy)-2-pyrazinecarboxamide]: the IC50 in assay [1] was 0.45 nM; at Cathepsin D (Cat D), more than 400000 nM; in assay [2], 1.4 nM.

For the compound `Cc1cc(Cl)cnc1C(=O)Nc1cnc(F)c([C@]2(C)CS(=O)(=O)C(C)(C)C(N)=N2)c1` [Example 347, N-(5-((3R)-5-amino-3,6,6-trimethyl-1,1-dioxido-3,6-dihydro-2H-1,4-thiazin-3-yl)-6-fluoro-3-pyridinyl)-5-chloro-3-methyl-2-pyridinecarboxamide], the IC50 in assay [1] was 1.1 nM; at Cathepsin D (Cat D), 71000 nM; in assay [2] it was 1.8 nM.

Turning to `CC1(C)C(N)=N[C@](C)(c2cc(NC(=O)c3ncc(C(F)F)cc3Cl)cnc2F)CS1(=O)=O` [Example 348, N-(5-((3R)-5-amino-3,6,6-trimethyl-1,1-dioxido-3,6-dihydro-2H-1,4-thiazin-3-yl)-6-fluoro-3-pyridinyl)-3-chloro-5-(difluoromethyl)-2-pyridinecarboxamide], the results for the 50% inhibitory concentration (IC50) (in assay [1]; at Cathepsin D (Cat D); in assay [2]) were 5.89 nM, 490000 nM and 9.92 nM, respectively.

Take `CC#CCOc1cnc(C(=O)Nc2cnc(F)c([C@]3(C)CS(=O)(=O)C4(CCC4)C(N)=N3)c2)c(C)c1` [Example 349, N-(5-((7R)-9-amino-7-methyl-5,5-dioxido-5-thia-8-azaspiro[3.5]non-8-en-7-yl)-6-fluoro-3-pyridinyl)-5-(2-butyn-1-yloxy)-3-methyl-2-pyridinecarboxamide]: the IC50 amounted to 0.78 nM in assay [1], 196000 nM on Cathepsin D (Cat D) and 1.3 nM in assay [2].

Take `Cc1cc(OCC(F)(F)F)cnc1C(=O)Nc1cnc(F)c([C@]2(C)CS(=O)(=O)C3(CCC3)C(N)=N2)c1` [Example 350, N-(5-((7R)-9-amino-7-methyl-5,5-dioxido-5-thia-8-azaspiro[3.5]non-8-en-7-yl)-6-fluoro-3-pyridinyl)-3-methyl-5-(2,2,2-trifluoroethoxy)-2-pyridinecarboxamide]: the IC50 was 6.06 nM in assay [1], more than 400000 nM on Cathepsin D (Cat D) and 34.5 nM in assay [2].

With `COCc1cc(Cl)cnc1C(=O)Nc1ccc(F)c([C@]2(C)CS(=O)(=O)C(C)(C)C(N)=N2)c1` [Example 351, N-(3-((3R)-5-amino-3,6,6-trimethyl-1,1-dioxido-3,6-dihydro-2H-1,4-thiazin-3-yl)-4-fluorophenyl)-5-chloro-3-(methoxymethyl)-2-pyridinecarboxamide], the IC50 was 0.52 nM in assay [1], more than 14800 nM at Cathepsin D (Cat D) and 2.7 nM in assay [2].

On to `CC1(C)C(N)=N[C@](C)(c2cc(NC(=O)c3ncc(Cl)cc3Br)ccc2F)CS1(=O)=O` [Example 352, N-(3-((3R)-5-amino-3,6,6-trimethyl-1,1-dioxido-3,6-dihydro-2H-1,4-thiazin-3-yl)-4-fluorophenyl)-3-bromo-5-chloro-2-pyridinecarboxamide], for which the IC50 in assay [1] turned out to be 0.8 nM; at Cathepsin D (Cat D) it was 410000 nM; in assay [2] it was 0.9 nM.

`Cc1cc(Cl)ccc1C(=O)Nc1ccc(F)c([C@]2(C)CS(=O)(=O)C(C)(C)C(N)=N2)c1` [Example 353, N-(3-((3R)-5-amino-3,6,6-trimethyl-1,1-dioxido-3,6-dihydro-2H-1,4-thiazin-3-yl)-4-fluorophenyl)-4-chloro-2-methylbenzamide]: the values for the half-inhibitory concentration (IC50) (in assay [1]; at Cathepsin D (Cat D); in assay [2]) were 6.52 nM, 708000 nM and 16.6 nM, respectively.

One may read the IC50 as the concentration needed to halve the response being measured.
